Organism: Rattus norvegicus
Assay: Open TG-GATES - Regimen: Daily Repeat
Format: toxicity, organism-based, Sprague-Dawley
Design: regimen Daily Repeat, gender Male, age 6 weeks
Conditions: in vivo, po, 100 mg/kg, route gavage, dose level High; for APTT / Bas / Eos / Fbg / Hb / Ht / Lym / MCH / MCHC / MCV / Mono / Neu / PT / Plat / RBC / Ret / WBC: tissue Blood; for KIDNEY_L / KIDNEY_R / KIDNEY_TOTAL: tissue Kidney; for LIVER: tissue Liver; for ALP / ALT / AST / BUN / CRE / Ca / DBIL / GLC / IP / K / LDH / Na / PL / RALB / TBIL / TC / TG / TP / gamma-GTP: tissue Plasma

## CSc1ccc2c(c1)N(CCC1CCCCN1C)c1ccccc1S2 (centres undefined) [THIORIDAZINE]
72 h, time 3 day
  TERMINAL_BW: 219.1 g
  APTT: 15.9 s
  Bas: 0%
  Eos: 1%
  Fbg: 196.2 mg/dL
  Hb: 13.9 g/dL
  Ht: 41.9%
  Lym: 81.4%
  MCH: 21.4 pg
  MCHC: 33.2%
  MCV: 64.4 fL
  Mono: 5.4%
  Neu: 12.2%
  PT: 11.9 s
  Plat: 117.8 x10_4/uL
  RBC: 651.2 x10_4/ul
  Ret: 6.1%
  WBC: 136.4 x10_2/uL
  KIDNEY_L: 1 g
  KIDNEY_R: 1 g
  KIDNEY_TOTAL: 2 g
  LIVER: 12.2 g
  ALP: 887.2 IU/L
  ALT: 40 IU/L
  AST: 63.2 IU/L
  BUN: 19.4 mg/dL
  CRE: 0.5 mg/dL
  Ca: 10.9 mg/dL
  DBIL: 0.062 mg/dL
  GLC: 187.6 mg/dL
  IP: 9.4 mg/dL
  K: 4.5 meq/L
  LDH: 158.8 IU/L
  Na: 139.8 meq/L
  PL: 164 mg/dL
  RALB: 4 g/dL
  TBIL: 0.2 mg/dL
  TC: 84 mg/dL
  TG: 92.4 mg/dL
  TP: 5.9 g/dL
  gamma-GTP: 1.6 IU/L
[…], time 7 day
  TERMINAL_BW: 252.6 g
  APTT: 16.5 s
  Bas: 0%
  Eos: 0.2%
  Fbg: 213 mg/dL
  Hb: 14.3 g/dL
  Ht: 43.2%
  Lym: 80%
  MCH: 21.3 pg
  MCHC: 33.1%
  MCV: 64.2 fL
  Mono: 7.6%
  Neu: 12%
  PT: 12.3 s
  Plat: 98.4 x10_4/uL
  RBC: 672 x10_4/ul
  Ret: 4.6%
  WBC: 144.8 x10_2/uL
  KIDNEY_L: 1.2 g
  KIDNEY_R: 1.2 g
  KIDNEY_TOTAL: 2.3 g
  LIVER: 12.3 g
  ALP: 928.2 IU/L
  ALT: 34.2 IU/L
  AST: 64 IU/L
  BUN: 16 mg/dL
  CRE: 0.5 mg/dL
  Ca: 11.2 mg/dL
  DBIL: 0.008 mg/dL
  GLC: 199.8 mg/dL
  IP: 9.7 mg/dL
  K: 4.6 meq/L
  LDH: 100.2 IU/L
  Na: 141.6 meq/L
  PL: 166.8 mg/dL
  RALB: 3.8 g/dL
  TBIL: 0.4 mg/dL
  TC: 79 mg/dL
  TG: 132.4 mg/dL
  TP: 5.7 g/dL
  gamma-GTP: 1.4 IU/L
[…], time 14 day
  TERMINAL_BW: 299.8 g
  APTT: 17.8 s
  Bas: 0%
  Eos: 0.8%
  Fbg: 242.8 mg/dL
  Hb: 15.2 g/dL
  Ht: 45.7%
  Lym: 75%
  MCH: 20.8 pg
  MCHC: 33.3%
  MCV: 62.5 fL
  Mono: 6%
  Neu: 18.2%
  PT: 11.9 s
  Plat: 112.1 x10_4/uL
  RBC: 733.4 x10_4/ul
  Ret: 4.4%
  WBC: 145.8 x10_2/uL
  KIDNEY_L: 1.3 g
  KIDNEY_R: 1.3 g
  KIDNEY_TOTAL: 2.6 g
  LIVER: 13.6 g
  ALP: 741.8 IU/L
  ALT: 30.4 IU/L
  AST: 61.2 IU/L
  BUN: 16.4 mg/dL
  CRE: 0.6 mg/dL
  Ca: 10.9 mg/dL
  DBIL: 0.02 mg/dL
  GLC: 178.2 mg/dL
  IP: 9.2 mg/dL
  K: 5.2 meq/L
  LDH: 189 IU/L
  Na: 142.8 meq/L
  PL: 152.2 mg/dL
  RALB: 4 g/dL
  TBIL: 0.4 mg/dL
  TC: 80.2 mg/dL
  TG: 83.4 mg/dL
  TP: 6.1 g/dL
  gamma-GTP: 1.4 IU/L
[…], time 28 day
  TERMINAL_BW: 349.4 g
  APTT: 17.7 s
  Bas: 0%
  Eos: 0.6%
  Fbg: 225.4 mg/dL
  Hb: 15.6 g/dL
  Ht: 46.6%
  Lym: 80.4%
  MCH: 19.3 pg
  MCHC: 33.4%
  MCV: 57.7 fL
  Mono: 5.6%
  Neu: 13.8%
  PT: 12.5 s
  Plat: 92.7 x10_4/uL
  RBC: 808.8 x10_4/ul
  Ret: 2.5%
  WBC: 142.8 x10_2/uL
  KIDNEY_L: 1.4 g
  KIDNEY_R: 1.4 g
  KIDNEY_TOTAL: 2.8 g
  LIVER: 15.1 g
  ALP: 742.4 IU/L
  ALT: 35.4 IU/L
  AST: 55.8 IU/L
  BUN: 18.6 mg/dL
  CRE: 0.6 mg/dL
  Ca: 10.7 mg/dL
  DBIL: 0.006 mg/dL
  GLC: 176.4 mg/dL
  IP: 7.7 mg/dL
  K: 4.9 meq/L
  LDH: 115.4 IU/L
  Na: 142.6 meq/L
  PL: 160 mg/dL
  RALB: 4.1 g/dL
  TBIL: 0.2 mg/dL
  TC: 80.2 mg/dL
  TG: 111.4 mg/dL
  TP: 6.4 g/dL
  gamma-GTP: 1.6 IU/L
